# Publication PMC4403045 (EMBO Molecular Medicine, 2015)
# Like-named read-outs stand apart in the source and are kept apart here.
# Experiments:
# HDAC3 = HDAC3 (Homo sapiens, UniProt O15379); experiment: in vitro HDAC inhibition assay, HDAC3; assay type: biochemical
# HDAC1 = HDAC1 (Homo sapiens, UniProt Q13547); experiment: in vitro HDAC1 inhibition assay; assay type: biochemical
# [1] = system: BCR-ABL Arf−/− murine ALL cells; experiment: activity against BCR-ABL ALL cells in vitro; assay type: cell-based
# Method: Cell lines were cultured using standard protocols provided by ATCC. Myc Arf^−/− cells were cultured as described (Jiang et al, [2009]). BCR-ABL mouse ALL cells were a kind gift from Dr. Richard Williams. CY190602 and its derivatives compound A and B were synthesized by Dr. Wang's Laboratory (U. New Mexico). Other chemicals were purchased from Selleck, EMD, or VWR. Antibodies against γ-H2AX (Millipore), actin (Sigma), H3K18Ac, H3K9Ac, and H3K56Ac (Cell Signaling) were used for Western blotting.
# (§1) Cells were seeded in 96-well plates, treated with different concentrations of drugs for 48 h, and cell viability was analyzed by MTT assays according to manufacturer's protocols. Experiments to determine GI50 with the NCI60 panel cell lines (http://dtp.nci.nih.gov/branches/btb/ivclsp.html) were performed at NCI (Alley et al, [1988]; Shoemaker, [2006]).
# BCR-ABL ALL cells = experiment: survival of mice transplanted with BCR-ABL ALL cells; assay type: in vivo; conditions: for survival extension: treatment at MTD, mice transplanted with BCR-ABL ALL cells
# Method: Experimental procedures were approved by the Animal Care and Use Committee of Shanghai Institute of Biochemistry and Cell Biology, Chinese Academy of Sciences. In all, 200 wild-type C57BL/6 mice (6 weeks old, female) were used for determining maximally tolerated dose of CY, and testing CY and other drugs' efficacy in the BCR-ABL ALL model. […] At 7 days postinjection, mice were treated with indicated drugs at their MTDs. Mice were monitored daily for survival after drug treatment. Survival curve and statistical analysis were done using the Prism software. For xenograft H460 model, in all, nude mice (8 weeks old, female) were used to test CY and bendamustine's in vivo efficacy. The numbers of mice used in each experimental group are labeled on Fig4.
# [2] = viability of healthy primary B cells; assay type: cell-based; conditions: human, healthy primary CD19+ B cells from blood donors, 20 μM CY
# From the text: This study was approved by the ethics committee of the University of Cologne (approval 01-163). Blood samples were obtained from patients fulfilling diagnostic criteria for CLL with informed consent according to the Helsinki protocol. Only patients without prior therapy or at least 12 months without prior chemotherapy were included in this study. Fresh blood samples were enriched by applying B-RosetteSep (StemCell Technologies, Vancouver, Canada) to aggregate unwanted cells with erythrocytes and Ficoll-Hypaque (Seromed, Berlin, Germany) density gradient purification resulting in purity > 98% of CD19^+/CD5^+ CLL cells. CLL cells were characterized for CD19, CD5, CD23, FMC7, CD38, ZAP-70, slgM, slgG, CD79a, and CD79b expression on a FACSCanto flow cytometer (BD PharMingen, Heidelberg, Germany). Controls were isolated from healthy blood donors using anti-CD19 MACS beads (Miltenyi, Bergisch Gladbach, Germany) resulting in at least 95% CD19^+ B cells.
# Apoptosis was determined by flow cytometry using Annexin V-FITC/7AAD staining (BD PharMingen) after 72 h. […] The fraction of viable cells was determined by counting annexin V/7-AAD double-negative cells for each individual dosage. Median values were subsequently applied for regression analysis and calculation of the half-maximal dosage effect (IC50). […] IC50 values were determined by fitting data to the Hill equation y = y0 + (axb)/(cb+xb).
# MEFs = experiment: GI50 in MEFs; assay type: cell-based
# Method: as §1
# human CLL cells = assay type: cell-based
# HDAC2 = HDAC2 (Homo sapiens, UniProt Q92769); experiment: in vitro HDAC inhibition assay, HDAC2; assay type: biochemical
# HDAC2, sequence (Q92769 whole entry): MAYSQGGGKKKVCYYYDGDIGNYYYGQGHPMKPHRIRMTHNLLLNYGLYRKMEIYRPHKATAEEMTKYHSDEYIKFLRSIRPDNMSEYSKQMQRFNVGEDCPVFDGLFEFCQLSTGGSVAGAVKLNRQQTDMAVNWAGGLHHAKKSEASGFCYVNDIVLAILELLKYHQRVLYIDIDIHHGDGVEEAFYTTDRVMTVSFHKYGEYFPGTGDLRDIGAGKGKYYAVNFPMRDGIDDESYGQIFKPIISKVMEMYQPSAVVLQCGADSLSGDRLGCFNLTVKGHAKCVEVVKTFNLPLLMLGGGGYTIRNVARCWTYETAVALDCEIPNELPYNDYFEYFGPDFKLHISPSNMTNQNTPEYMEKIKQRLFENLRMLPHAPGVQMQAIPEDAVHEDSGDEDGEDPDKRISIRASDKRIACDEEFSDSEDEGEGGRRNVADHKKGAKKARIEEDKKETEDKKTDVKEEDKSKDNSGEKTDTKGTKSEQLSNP
# [3] = maximally tolerated dose in mice; conditions: female, C57BL/6, mouse, in vivo
# Method: (§2) Experimental procedures were approved by the Animal Care and Use Committee of Shanghai Institute of Biochemistry and Cell Biology, Chinese Academy of Sciences. In all, 200 wild-type C57BL/6 mice (6 weeks old, female) were used for determining maximally tolerated dose of CY, and testing CY and other drugs' efficacy in the BCR-ABL ALL model. BCR-ABL cells have been previously described (Williams et al, [2006]). For in vivo experiments, 1 million cells were injected into mice via tail vein (Williams et al, [2006]). At 7 days postinjection, mice were treated with indicated drugs at their MTDs. Mice were monitored daily for survival after drug treatment. Survival curve and statistical analysis were done using the Prism software. For xenograft H460 model, in all, nude mice (8 weeks old, female) were used to test CY and bendamustine's in vivo efficacy. The numbers of mice used in each experimental group are labeled on Fig4.
# [4] = system: human NSCLC cell line H460; experiment: H460 xenograft in nude mice; assay type: in vivo; conditions: single dose CY 20, 40, 60 mg/kg; bendamustine 40 mg/kg
# Method: as §2
# [5] = system: CBP, TIP60, MORF, and MSL1 expression in H1650 cells; assay type: cell-based
# [6] = system: HDAC activities in H1650 cells; experiment: histone acetylation markers by Western blot in H1650 cells; assay type: cell-based; conditions: 12 h, 20 μM CY, 20 μM CpdA, 200 μM CpdB, 200 μM Bend
# NCI60 cell lines = experiment: GI50 in the NCI60 cell line panel; assay type: cell-based; conditions: Homo sapiens
# Method: as §1
# human AML cells = experiment: patient derived xenograft mouse model of human AML; conditions: done by other collaborators; review file
# HDAC6 = biological target: T1, HDAC6 (Homo sapiens, UniProt Q9UBN7); experiment: in vitro HDAC inhibition assay, HDAC6; assay type: biochemical
# T1 sequence (Q9UBN7 1-1215): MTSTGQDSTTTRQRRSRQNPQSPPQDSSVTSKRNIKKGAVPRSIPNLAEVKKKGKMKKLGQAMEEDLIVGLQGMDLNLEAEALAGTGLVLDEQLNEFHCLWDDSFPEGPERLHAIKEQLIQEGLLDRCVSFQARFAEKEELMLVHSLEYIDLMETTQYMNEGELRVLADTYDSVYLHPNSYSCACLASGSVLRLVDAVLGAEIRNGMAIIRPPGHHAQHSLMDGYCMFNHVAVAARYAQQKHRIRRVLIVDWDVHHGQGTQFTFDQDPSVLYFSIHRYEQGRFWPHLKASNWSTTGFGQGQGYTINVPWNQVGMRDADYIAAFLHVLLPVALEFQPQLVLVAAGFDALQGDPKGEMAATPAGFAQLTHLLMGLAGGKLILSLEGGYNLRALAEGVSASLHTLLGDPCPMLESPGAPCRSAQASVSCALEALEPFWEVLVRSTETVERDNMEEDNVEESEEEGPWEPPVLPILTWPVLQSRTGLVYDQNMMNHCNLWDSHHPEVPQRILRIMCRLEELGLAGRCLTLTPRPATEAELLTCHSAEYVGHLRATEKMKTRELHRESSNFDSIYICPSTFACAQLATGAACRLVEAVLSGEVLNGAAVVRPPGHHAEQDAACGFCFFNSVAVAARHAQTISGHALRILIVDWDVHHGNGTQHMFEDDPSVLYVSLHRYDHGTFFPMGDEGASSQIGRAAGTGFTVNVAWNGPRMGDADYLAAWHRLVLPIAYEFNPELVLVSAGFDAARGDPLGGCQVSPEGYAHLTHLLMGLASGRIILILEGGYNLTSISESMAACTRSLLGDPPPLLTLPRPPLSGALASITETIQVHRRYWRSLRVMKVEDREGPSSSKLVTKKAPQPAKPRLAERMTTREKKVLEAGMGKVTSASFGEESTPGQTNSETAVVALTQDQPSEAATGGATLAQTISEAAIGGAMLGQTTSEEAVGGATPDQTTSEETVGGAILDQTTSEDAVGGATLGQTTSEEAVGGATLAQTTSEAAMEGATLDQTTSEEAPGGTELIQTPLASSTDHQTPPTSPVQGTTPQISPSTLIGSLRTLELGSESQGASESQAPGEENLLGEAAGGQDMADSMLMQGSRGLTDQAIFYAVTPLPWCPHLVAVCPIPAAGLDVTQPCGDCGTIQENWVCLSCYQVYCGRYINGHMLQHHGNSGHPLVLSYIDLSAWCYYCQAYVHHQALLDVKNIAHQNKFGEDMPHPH
# HDAC4 = HDAC4 (Homo sapiens, UniProt P56524); experiment: in vitro HDAC inhibition assay, HDAC4; assay type: biochemical
# HDAC4, sequence (P56524 whole entry): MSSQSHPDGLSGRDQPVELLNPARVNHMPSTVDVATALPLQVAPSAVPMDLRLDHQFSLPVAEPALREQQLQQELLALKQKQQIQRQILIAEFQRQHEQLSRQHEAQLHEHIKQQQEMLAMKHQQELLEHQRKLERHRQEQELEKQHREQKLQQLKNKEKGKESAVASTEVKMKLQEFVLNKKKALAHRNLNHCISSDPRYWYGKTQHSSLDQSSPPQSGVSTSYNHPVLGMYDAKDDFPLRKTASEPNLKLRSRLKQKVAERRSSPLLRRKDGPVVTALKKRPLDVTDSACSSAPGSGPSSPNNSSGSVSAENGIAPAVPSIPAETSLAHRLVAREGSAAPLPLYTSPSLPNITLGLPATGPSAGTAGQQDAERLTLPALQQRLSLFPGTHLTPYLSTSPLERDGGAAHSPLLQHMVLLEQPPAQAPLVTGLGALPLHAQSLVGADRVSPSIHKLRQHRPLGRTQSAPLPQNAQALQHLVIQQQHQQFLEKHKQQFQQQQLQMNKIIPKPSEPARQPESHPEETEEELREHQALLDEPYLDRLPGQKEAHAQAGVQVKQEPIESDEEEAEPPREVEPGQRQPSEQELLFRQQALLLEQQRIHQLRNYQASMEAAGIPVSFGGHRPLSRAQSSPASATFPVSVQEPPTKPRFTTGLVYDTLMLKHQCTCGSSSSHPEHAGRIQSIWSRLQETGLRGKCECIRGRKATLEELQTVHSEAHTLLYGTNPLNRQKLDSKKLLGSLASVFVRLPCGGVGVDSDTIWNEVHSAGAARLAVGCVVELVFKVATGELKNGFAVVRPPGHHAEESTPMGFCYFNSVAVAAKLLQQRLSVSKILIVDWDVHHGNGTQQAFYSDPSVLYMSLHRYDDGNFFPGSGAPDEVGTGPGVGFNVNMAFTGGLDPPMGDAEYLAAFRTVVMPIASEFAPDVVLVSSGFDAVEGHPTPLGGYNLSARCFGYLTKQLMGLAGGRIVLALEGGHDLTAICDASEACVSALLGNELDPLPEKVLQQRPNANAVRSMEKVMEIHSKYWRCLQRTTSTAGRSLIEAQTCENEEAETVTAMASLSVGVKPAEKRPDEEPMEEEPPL
# γ-H2AX in H1650 cells = experiment: γ-H2AX Western blot (DNA damage) in H1650 cells; assay type: cell-based; conditions: 12 h
# human cancer cell lines = experiment: cancer cell killing / MTT viability (LD50); assay type: cell-based
# [7] = mice; ref according to the literature; cited from earlier work
# HDAC1-6 = experiment: cell-free HDAC activity assays, HDAC1-6 overall; assay type: biochemical; conditions: Fig2A and 2B
# [8] = H1650 cells, 6 h, bendamustine 350 μM, CY 15 μM, SAHA 10 μM
# [9] = median over NCI60 cell lines, read-out: median growth inhibitor concentration (GI50)
# HDAC1, sequence (Q13547 whole entry): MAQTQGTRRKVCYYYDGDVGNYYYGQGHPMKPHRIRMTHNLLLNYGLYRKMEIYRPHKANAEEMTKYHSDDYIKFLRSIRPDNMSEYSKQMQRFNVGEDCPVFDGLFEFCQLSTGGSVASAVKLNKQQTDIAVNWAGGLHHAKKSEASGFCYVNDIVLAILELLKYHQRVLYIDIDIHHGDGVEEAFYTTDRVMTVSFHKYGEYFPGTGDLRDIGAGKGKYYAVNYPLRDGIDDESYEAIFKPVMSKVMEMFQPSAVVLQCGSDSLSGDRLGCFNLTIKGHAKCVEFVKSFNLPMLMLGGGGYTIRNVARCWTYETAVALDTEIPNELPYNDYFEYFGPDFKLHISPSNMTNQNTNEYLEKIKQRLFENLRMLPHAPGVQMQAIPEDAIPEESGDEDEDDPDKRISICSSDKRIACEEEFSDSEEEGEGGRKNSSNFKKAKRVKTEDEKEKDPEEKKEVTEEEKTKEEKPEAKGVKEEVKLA
# HDAC3, sequence (O15379 whole entry): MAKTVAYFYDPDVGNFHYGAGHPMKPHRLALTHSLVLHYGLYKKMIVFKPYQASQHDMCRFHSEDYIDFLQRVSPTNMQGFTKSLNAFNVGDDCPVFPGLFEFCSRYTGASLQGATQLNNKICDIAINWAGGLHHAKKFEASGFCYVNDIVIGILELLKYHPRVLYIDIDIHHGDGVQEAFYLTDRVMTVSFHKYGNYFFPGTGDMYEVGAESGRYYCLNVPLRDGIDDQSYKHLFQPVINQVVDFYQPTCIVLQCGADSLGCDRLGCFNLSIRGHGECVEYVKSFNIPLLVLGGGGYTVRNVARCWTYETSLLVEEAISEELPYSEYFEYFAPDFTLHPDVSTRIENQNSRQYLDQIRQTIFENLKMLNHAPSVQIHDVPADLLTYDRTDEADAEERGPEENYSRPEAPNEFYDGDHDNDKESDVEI
# HDAC3, sequence (Q9Y618 395-489 partner limits assumed): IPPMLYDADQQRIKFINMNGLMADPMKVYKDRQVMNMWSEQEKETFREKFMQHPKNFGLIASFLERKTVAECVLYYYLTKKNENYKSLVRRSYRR
smiles,measurement,setting,value
Cn1c(CCCCCCC(=O)NO)nc2cc(N(CCCl)CCCl)ccc21 [CY190602],IC50,HDAC3,25 nM
same,IC50,"HDAC1; HDAC1 Assay (plot legend value), Fig 2A upper panel",9 nM
same,IC50,"HDAC1; IC50 of CY, HDAC1, Fig 2A lower panel",17 nM
same,activity in cultured BCR-ABL ALL cells compared with bendamustine,[1],more active than bendamustine
same,"survival extension compared with cyclophosphamide, doxorubicin, cytarabine, and vincristine",BCR-ABL ALL cells; drugs at MTD,superior to these drugs
same,survival extension,BCR-ABL ALL cells,14 days
same,"viability at 72 h, 20 μM",[2],~40%
same,GI50,MEFs,57 µM
same,CLL cells killed at 5 μM,"human CLL cells; 5 μM, 72 h",nearly all
same,IC50,HDAC2,10 nM
same,MTD,[3],60 mg/kg
same,anticancer activity in H460 xenograft compared with bendamustine,[4],superior to bendamustine
same,"expression of Tip60, CBP, MORF and MSL1",[5]; [8],greatly suppressed
same,inhibition of HDAC activities in cancer cells (histone acetylation markers),[6],inhibited HDAC activities
same,GI50,"NCI60 cell lines; average over NCI60 cell lines, read-out: average GI50",3.2 µM
same,GI50,NCI60 cell lines; [9],2.2 µM
same,effect on AML cells,human AML cells,nearly eliminated AML cells
same,effect on mouse CD45+ (hematopoeitc lineage) cells,human AML cells,minimal effect
same,IC50,HDAC6,72 nM
same,IC50,HDAC4,6.4 nM
Cn1c(CCCCCCC(=O)O)nc2cc(N(CCCl)CCCl)ccc21 [compound B],inhibition of HDAC activities in cancer cells (histone acetylation markers),[6],little HDAC inhibitory activity
same,inhibition of HDAC activities in cancer cells (histone acetylation markers),[6]; listed as CpdB,not
Cn1c(CCCCCCC(=O)NO)nc2cc(N(CCO)CCO)ccc21 [compound A],inhibition of HDAC activities in cancer cells (histone acetylation markers),[6],inhibited HDAC activities
same,level of γ-H2AX in bendamustine-treated cells,γ-H2AX in H1650 cells; 100 μM Bend plus 50 μM Cpd A,significantly increased
same,DNA damage (γ-H2AX) by the compound alone,γ-H2AX in H1650 cells; H1650 cells,did not cause DNA damage
same,synergy with bendamustine in killing cancer cells,human cancer cell lines; nontoxic dose of Cpd A plus bendamustine,significantly synergized with bendamustine
same,killing of cancer cells,"human cancer cell lines; up to 200 μM, 48 h",very ineffective in killing cancer cells
CC(C)n1nc(-c2cc3cc(O)ccc3[nH]2)c2c(N)ncnc21 [PP242],"survival extension, daily treatment",BCR-ABL ALL cells; daily dose,8 days
Nc1nc(F)nc2c1ncn2[C@@H]1O[C@H](CO)[C@@H](O)[C@@H]1O [fludarabine],CLL cells killed at 100 μM,human CLL cells,about 80%
"Nc1ccn([C@@H]2O[C@H](CO)[C@@H](O)[C@@H]2O)c(=O)n1 [Cytarabine, reference compound]",effect on AML cells,human AML cells,"didn’t kill AML cells as quickly, or as thoroughly as did CY"
same,effect on mouse CD45+ (hematopoeitc lineage) cells,human AML cells,nearly wiped out CD45+ cells
O=C(CCCCCCC(=O)Nc1ccccc1)NO [SAHA],survival extension,BCR-ABL ALL cells,approximately 2 days
same,"expression of Tip60, CBP, MORF and MSL1",[5],significant suppression
Cn1c(CCCC(=O)O)nc2cc(N(CCCl)CCCl)ccc21 [bendamustine],MTD,[7],40 mg/kg
same,survival extension,BCR-ABL ALL cells,~5 days
same,GI50,"MEFs; MEFs, authors' response in review file",~390 µM
same,CLL cells killed at 100 μM,"human CLL cells; 100 μM, 72 h",about 80%
same,"expression of Tip60, CBP, MORF and MSL1",[5]; [8],not
same,inhibition of HDAC activities in cancer cells (histone acetylation markers),[6],not
same,GI50,NCI60 cell lines; [9],77 µM
same,GI50,NCI60 cell lines; read-out: GI50 for most cancer cell lines of the NCI 60 test,> 100 µM
same,HDAC inhibition,HDAC1-6,inability to inhibit HDAC
